Experimental data taken from patent US6710086B1, “Protected forms of pharmacologically active agents and uses therefor” (Medinox, Inc., priority 2000, dated 2004).

Tested on: adjuvant-induced arthritis
Conditions: high doses: naproxen 10 mg/kg, conjugate 18 mg/kg, oral daily on days 5-8 and 11-14; day 15

COc1ccc2cc([C@H](C)C(=O)O)ccc2c1 [Naproxen, (S)-(+)-methoxy-α-methyl-2-naphthaleneacetic acid]
Reduction of swelling compared to control: approximately 70%
